Measurements taken from PMC3190057 (Food and chemical toxicology : an international journal …, 2011).
“And” between values parts separate entries of the source, which are not always exact repeats. Equal values may be shown once.

Key:
P-gp [1] = assay: P-gp functional activity, rhodamine 123 uptake with or without 100 μM verapamil; conditions: LS-180 cells; for increase in P-gp activity: 48 h; for Emax (fold ↑ in P-gp activity): Hill equation fit
P-gp [2] = assay: in vitro; conditions: human
P-gp [3] = assay: Immunofluorescence staining and imaging of membrane P-gp; format: cell-based, human; conditions: LS-180 cells, 25 μM, 48 h, mean ± SD (n=4)
P-gp [4] = assay: In vitro induction of P-gp expression, Western blotting; format: cell-based, human; conditions: LS-180 cells, 25 μM, 48 h, Western blot densitometry, P-gp/β-actin
[5] = human subjects, oral administration, cited from earlier work
LS-180 cells = assay: Toxicity to LS-180 cells during the induction treatment; format: cell-based, human

EC50 at 48 h (P-gp [2]) [µM] | Structure (SMILES) | increase in P-gp activity (P-gp [1]; 25 μM) [%] | Emax (fold ↑ in P-gp activity) (P-gp [1]) [fold] | fold-increase in membrane P-gp expression compared to the control (P-gp [3]) [fold] | fold increase in the expression of P-gp protein compared to control (P-gp [4]) | increase in P-gp activity (P-gp [1]; 5 μM) [%] | decrease in digoxin area under the plasma curve (AUC) ([5]; ref Greiner et al., 1999) [%] | decrease in risperidone area under the plasma curve (AUC) ([5]; ref Kim et al., 2008) [%] | increase in P-gp activity (P-gp [1]; 10 μM) [%] | EC50 at 48 h (P-gp [2]; LS-180 cells, probe rhodamine 123 (1 μg/mL), with verapamil 100 μM) [µM] | concentration toxic to the cells (LS-180 cells) [µM]
11.3 | C[C@H]1[C@H](C)CC[C@]2(C(=O)O)CC[C@]3(C)C(=CC[C@@H]4[C@@]5(C)C[C@@H](O)[C@H](O)[C@@](C)(CO)[C@@H]5CC[C@]43C)[C@H]12 [asiatic acid, Asiatic acid] | > 45 | 1.5 | 2.5 ± 0.95 | 2.3-3.0 fold and 2.6 fold |  |  |  |  |  | 
14 | C/C=C(/C=O)[C@@H](CC=O)CC(=O)OCCc1ccc(O)cc1 [oleocanthal, (-)-Oleocanthal] |  | 4.5 | 9.3 ± 0.37 | 2.3-3.0 fold and 2.3 fold |  |  |  |  |  | 
 | CC(C)=CCC/C(C)=C/CC/C(C)=C/CC[C@]1(C)CCc2cc(O)c(C)c(C)c2O1 [γ-tocotrienol, γ-Tocotrienol] |  | 1.7 | 4.6 ± 0.39 | 2.3-3.0 fold and 2.5 fold |  |  |  | > 45 | 5.9 | > 25

Structure (SMILES) | EC50 at 48 h (P-gp [2]) [µM] | increase in P-gp activity (P-gp [1]; 25 μM) [%] | Emax (fold ↑ in P-gp activity) (P-gp [1]) [fold] | fold-increase in membrane P-gp expression compared to the control (P-gp [3]) [fold] | fold increase in the expression of P-gp protein compared to control (P-gp [4]) | increase in P-gp activity (P-gp [1]; 5 μM) [%] | decrease in digoxin area under the plasma curve (AUC) ([5]; ref Greiner et al., 1999) [%] | decrease in risperidone area under the plasma curve (AUC) ([5]; ref Kim et al., 2008) [%] | increase in P-gp activity (P-gp [1]; 10 μM) [%] | EC50 at 48 h (P-gp [2]; LS-180 cells, probe rhodamine 123 (1 μg/mL), with verapamil 100 μM) [µM] | concentration toxic to the cells (LS-180 cells) [µM]
CO[C@H]1/C=C/O[C@@]2(C)Oc3c(C)c(O)c4c(O)c(c(/C=N/N5CCN(C)CC5)c(O)c4c3C2=O)NC(=O)/C(C)=C\C=C\[C@H](C)[C@H](O)[C@@H](C)[C@@H](O)[C@@H](C)[C@H](OC(C)=O)[C@@H]1C [rifampicin, Rifampicin, reference compound] | 26.8 | 230 | 4.4 |  | 5 fold | 180 | 30 | 51 |  |  | 
